# According to ChEMBL document CHEMBL1132225, “Novel antidiabetic and hypolipidemic agents. 3. Benzofuran-containing thiazolidinediones” (J Med Chem, 1999):
# Values joined by “and” are separate entries in the source; they are usually repeats but may differ in a detail not shown here. Equal entries are not always repeated. Active and inactive are the calls of the source. No cut-off for these calls is given here.
# Tests used:
# [1] = biological target: T1, Peroxisome proliferator-activated receptor gamma (Homo sapiens) (UniProt P37231); experiment: The fold activation against 1 amino acids 174-475)
# T1 sequence (whole entry): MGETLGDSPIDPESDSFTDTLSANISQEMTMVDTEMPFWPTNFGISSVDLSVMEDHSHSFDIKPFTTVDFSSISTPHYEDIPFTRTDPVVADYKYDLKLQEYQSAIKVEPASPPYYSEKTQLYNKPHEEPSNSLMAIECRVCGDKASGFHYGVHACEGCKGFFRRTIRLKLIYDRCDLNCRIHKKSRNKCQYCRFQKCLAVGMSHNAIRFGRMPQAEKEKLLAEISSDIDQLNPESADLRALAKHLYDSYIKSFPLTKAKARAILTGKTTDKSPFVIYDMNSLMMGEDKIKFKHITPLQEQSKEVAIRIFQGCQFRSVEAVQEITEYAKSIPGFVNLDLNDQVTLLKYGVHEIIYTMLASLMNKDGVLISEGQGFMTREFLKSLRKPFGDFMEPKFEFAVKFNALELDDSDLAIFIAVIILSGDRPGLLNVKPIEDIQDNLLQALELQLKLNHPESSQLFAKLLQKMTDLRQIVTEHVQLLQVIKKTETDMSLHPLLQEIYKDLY
# Mus musculus [2] = experiment: Percent reduction in plasma triglyceride (TG) after 6 days of treatment. It is the mean of standard deviation observed in plasma triglyceride (TG) in db/db mice at dose of 100 mg/kg/day; NA = Not Active; assay type: functional
# [3] = biological target: T2, Peroxisome proliferator-activated receptor alpha (Homo sapiens) (UniProt Q07869); experiment: The fold activation against 50 u M Peroxisome proliferator activated receptor alpha(amino acids 167-468)
# T2 sequence (whole entry): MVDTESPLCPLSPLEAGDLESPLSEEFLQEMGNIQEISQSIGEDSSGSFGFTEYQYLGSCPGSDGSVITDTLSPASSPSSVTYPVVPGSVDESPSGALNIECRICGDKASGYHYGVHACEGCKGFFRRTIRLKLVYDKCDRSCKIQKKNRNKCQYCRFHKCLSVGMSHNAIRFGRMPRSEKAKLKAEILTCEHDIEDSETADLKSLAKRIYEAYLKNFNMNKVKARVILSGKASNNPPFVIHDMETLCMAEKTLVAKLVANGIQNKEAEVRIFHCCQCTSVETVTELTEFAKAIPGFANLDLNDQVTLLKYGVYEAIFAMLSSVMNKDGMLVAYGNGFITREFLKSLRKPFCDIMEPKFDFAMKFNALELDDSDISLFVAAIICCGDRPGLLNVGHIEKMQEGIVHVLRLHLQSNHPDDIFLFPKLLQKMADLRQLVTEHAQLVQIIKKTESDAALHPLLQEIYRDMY
# Mus musculus [4] = experiment: Percent reduction of plasma glucose (PG) after 6 days of treatment. It is the mean of standard deviation observed in plasma glucose (PG) in db/db mice at dose of 100 mg/kg/day; assay type: functional; settings: route oral
# [5] = biological target: T2, Peroxisome proliferator-activated receptor alpha (Homo sapiens); experiment: Compound was tested for fold transactivation of human Peroxisome proliferator activated receptor alpha at 50 uM
# Mus musculus [6] = species on record: Mus musculus; experiment: Percent reduction of plasma glucose after 6 days of treatment (various doses).; assay type: functional
# Mus musculus [7] = species on record: Mus musculus; experiment: The compound was tested for percent reduction of plasma triglyceride after 6 days of treatment; Not Active; assay type: functional, organism-based
# Mus musculus [8] = experiment: Percent reduction in plasma triglyceride (TG) after 6 days of treatment. It is the mean of standard deviation observed in plasma triglyceride (TG) in db/db mice at dose of 200 mg/kg/day; NA = Not Active; assay type: functional, organism-based
# Mus musculus [9] = species on record: Mus musculus; experiment: The compound was tested for percent reduction of plasma triglyceride after 6 days of treatment; not active; assay type: functional, organism-based
# Mus musculus [10] = experiment: Percent reduction of plasma glucose (PG) after 6 days of treatment. It is the mean of standard deviation observed in plasma glucose (PG) in db/db mice at dose of 200 mg/kg/day; assay type: functional; settings: route oral
# Mus musculus [11] = species on record: Mus musculus; experiment: The compound was tested for percent reduction of plasma triglyceride after 6 days of treatment.; assay type: functional; parameters: concentration or dose not given beside the values
# [12] = Pharmacokinetic Parameter, AUC (0-infinity) is the area under the plasma concentration versus time curve extrapolated to infinity in Female Wistar Rats at 100 mg/kg by po administration; assay type: ADME, organism-based; parameters: time infinity, dose 100 mg/kg, route oral; settings: rat, read-out: AUC 0-infinity
# Mus musculus [13] = experiment: Percent reduction in plasma triglyceride (TG) after 6 days of treatment. It is the mean of standard deviation observed in plasma triglyceride (TG) in db/db mice at dose of 30 mg/kg/day; assay type: functional; settings: route oral
# [14] = Pharmacokinetic Parameter, Tmax is the time at which maximum concentration (Cmax) is reached in Female Wistar Rats at 100 mg/kg by po administration; assay type: ADME, organism-based; parameters: dose 100 mg/kg, route oral; settings: rat, in vivo
# [15] = Pharmacokinetic Parameter, half life period measured in Female Wistar Rats at 100 mg/kg by po administration; assay type: ADME, organism-based; parameters: dose 100 mg/kg, route oral; settings: rat, in vivo
# [16] = Pharmacokinetic Parameter, Kel is elimination rate constant in Female Wistar Rats at 100 mg/kg by po administration; assay type: ADME, organism-based; parameters: dose 100 mg/kg, route oral; settings: rat, in vivo
# [17] = Pharmacokinetic Parameter, Cmax is observed maximum plasma concentration in Female Wistar Rats at 100 mg/kg by po administration; assay type: ADME, organism-based; parameters: dose 100 mg/kg, route oral; settings: rat
# [18] = Pharmacokinetic Parameter, AUC (0-t) is the area under the plasma concentration versus time curve in Female Wistar Rats at 100 mg/kg by po administration; assay type: ADME, organism-based; parameters: dose 100 mg/kg, route oral; settings: rat
# Mus musculus [19] = experiment: Percent reduction of plasma glucose (PG) after 6 days of treatment. It is the mean of standard deviation observed in plasma glucose (PG) in db/db mice at dose of 30 mg/kg/day; assay type: functional; settings: route oral
# Mus musculus [20] = experiment: Percent reduction of plasma glucose (PG) after 6 days of treatment. It is the mean of standard deviation observed in plasma glucose (PG) in db/db mice at dose of 100 mg/kg/day; NA = Not Active; assay type: functional, organism-based
# Mus musculus [21] = species on record: Mus musculus; experiment: The compound was tested for percent reduction of plasma glucose after 6 days of treatment; Not Active; assay type: functional, organism-based
# Mus musculus [22] = experiment: Percent reduction in plasma triglyceride (TG) after 6 days of treatment. It is the mean of standard deviation observed in plasma triglyceride (TG) in db/db mice at dose of 100 mg/kg/day; assay type: functional; settings: route oral
compound,measurement,setting,value
Cc1c(C)c2c(c(C)c1O)C(CN1CCC[C@H]1COc1ccc(/C=C3\SC(=O)NC3=O)cc1)C(C)(C)O2 (stereo not given in full),Fold activation,[1],0.84
same,TG,Mus musculus [2],inactive
same,Fold activation,[3],0.28
same,PG,Mus musculus [4],19%
same,Transactivation,[5],0.28 fold
same,Reduction,Mus musculus [6],19%
same,Reduction,Mus musculus [7],inactive
Cc1c(C)c2c(c(C)c1OCc1ccccc1)C(CN1CCC[C@H]1COc1ccc(/C=C3\SC(=O)NC3=O)cc1)C(C)(C)O2 (stereo not given in full),Fold activation,[1],1.03
same,Fold activation,[3],0.43
same,Transactivation,[5],0.43 fold
Cc1c(C)c2c(c(C)c1OCc1ccccc1)C(COc1ccc(/C=C3\SC(=O)NC3=O)cc1)C(C)(C)O2 (stereo not given),TG,Mus musculus [8],inactive
same,Reduction,Mus musculus [9],inactive
same,Reduction,Mus musculus [6],10%
same,PG,Mus musculus [10],10%
Cc1c(C)c2c(c(C)c1O)C(CN(C)CCOc1ccc(/C=C3\SC(=O)NC3=O)cc1)C(C)(C)O2 (stereo not given),TG,Mus musculus [2]; route oral,76%
same,PG,Mus musculus [4],28%
same,Reduction,Mus musculus [6],28%
same,Reduction,Mus musculus [11],76%
Cc1c(C)c2c(c(C)c1OCc1ccccc1)C(CN1CCC[C@H]1COc1ccc(CC3SC(=O)NC3=O)cc1)C(C)(C)O2 (stereo not given in full) [listing 1 of 2 here],Fold activation,[1],0.17
same,Fold activation,[3],0.33
same,Transactivation,[5],0.33 fold
Cc1c(C)c2c(c(C)c1O)C(CN(C)CCOc1ccc(CC3SC(=O)NC3=O)cc1)C(C)(C)O2 (stereo not given),Reduction,Mus musculus [6],19%
same,PG,Mus musculus [10],19%
Cc1c(C)c2c(c(C)c1OCc1ccccc1)C(CN1CCC[C@H]1COc1ccc(/C=C3\SC(=O)NC3=O)cc1)C(C)(C)O2.O=C(O)/C=C\C(=O)O (stereo not given in full),AUC(0-inf),[12],65000 ng·h/mL
same,TG,Mus musculus [13],42%
same,Tmax,[14],5 h
same,half-life,[15],10.1 h
same,k el,[16],1.94e-05 s⁻¹
same,Cmax,[17],4300 ng/mL
same,AUC(0-t),[18],53800 ng·h/mL
same,PG,Mus musculus [19],45%
Cc1oc2c(C)c(C)c(OCc3ccccc3)c(C)c2c1CN1CCC[C@@H](Oc2ccc(/C=C3\SC(=O)NC3=O)cc2)C1,PG,Mus musculus [20],inactive
same,TG,Mus musculus [2],inactive
same,Reduction,Mus musculus [21],inactive
same,Reduction,Mus musculus [9],inactive
Cc1c(C)c2c(c(C)c1OCc1ccccc1)C(CN1CCC[C@H]1COc1ccc(CC3SC(=O)NC3=O)cc1)C(C)(C)O2.O=C(O)/C=C\C(=O)O (stereo not given in full),TG,Mus musculus [13],64%
same,PG,Mus musculus [19],24%
Cc1c(C)c2c(c(C)c1OCc1ccccc1)C(CN1CCC[C@H]1COc1ccc(CC3SC(=O)NC3=O)cc1)C(C)(C)O2 (stereo not given in full) [listing 2 of 2 here],TG,Mus musculus [13],22%
same,PG,Mus musculus [4],48%
same,TG,Mus musculus [22],31%
same,Reduction,Mus musculus [6],48% and 37%
same,PG,Mus musculus [19],37%
same,Reduction,Mus musculus [11],31% and 22%
Cc1c(C)c2c(c(C)c1O)C(COc1ccc(CC3SC(=O)NC3=O)cc1)C(C)(C)O2 (stereo not given),Reduction,Mus musculus [6],12%
same,Reduction,Mus musculus [11],31%
Cc1c(C)c2c(c(C)c1OCc1ccccc1)C(CN(C)CCOc1ccc(/C=C3\SC(=O)NC3=O)cc1)C(C)(C)O2 (stereo not given),TG,Mus musculus [8],inactive
same,Reduction,Mus musculus [6],23%
same,PG,Mus musculus [10],23%
same,Reduction,Mus musculus [7],inactive
Cc1oc2c(C)c(C)c(OCc3ccccc3)c(C)c2c1CN1CCC[C@H]1COc1ccc(CC2SC(=O)NC2=O)cc1 (stereo not given in full),PG,Mus musculus [20],inactive
same,TG,Mus musculus [2],inactive
Cc1c(C)c2c(c(C)c1OCc1ccccc1)C(CN1CCC[C@H]1COc1ccc(/C=C3\SC(=O)NC3=O)cc1)C(C)(C)O2.Cl (stereo not given in full),TG,Mus musculus [13],57%
same,Reduction,Mus musculus [6],25%
same,PG,Mus musculus [19],25%
same,Reduction,Mus musculus [11],57%
Cc1oc2c(C)c(C)c(O)c(C)c2c1CN1CCC[C@@H](Oc2ccc(/C=C3\SC(=O)NC3=O)cc2)C1,TG,Mus musculus [2],inactive
same,PG,Mus musculus [4],22%
same,Reduction,Mus musculus [6],22%
same,Reduction,Mus musculus [7],inactive
Cc1c(C)c2c(c(C)c1O)C(COc1ccc(/C=C3\SC(=O)NC3=O)cc1)C(C)(C)O2 (stereo not given),TG,Mus musculus [8],inactive
same,Reduction,Mus musculus [9],inactive
same,Reduction,Mus musculus [6],11%
same,PG,Mus musculus [10],11%
Cc1c(C)c2c(c(C)c1O)C(CN1CCC[C@H]1COc1ccc(CC3SC(=O)NC3=O)cc1)C(C)(C)O2 (stereo not given in full),Fold activation,[1],1.21
same,TG,Mus musculus [13],29%
same,Fold activation,[3],0.46
same,PG,Mus musculus [4],37%
same,Transactivation,[5],0.46 fold
same,TG,Mus musculus [22],33%
same,Reduction,Mus musculus [6],37% and 28%
same,PG,Mus musculus [19],28%
same,Reduction,Mus musculus [11],33% and 29%
Cc1c(C)c2c(c(C)c1OCc1ccccc1)C(CN1CCC[C@@H](Oc3ccc(/C=C4\SC(=O)NC4=O)cc3)C1)C(C)(C)O2 (stereo not given in full),PG,Mus musculus [20],inactive
same,Reduction,Mus musculus [21],inactive
same,TG,Mus musculus [22],52%
same,Reduction,Mus musculus [11],52%
Cc1oc2c(C)c(C)c(OCc3ccccc3)c(C)c2c1CN1CCC[C@H]1COc1ccc(/C=C2\SC(=O)NC2=O)cc1,TG,Mus musculus [2],inactive
same,PG,Mus musculus [4],50%
same,Reduction,Mus musculus [6],50%
same,Reduction,Mus musculus [7],inactive
